Results: article PMC11926880, “Procognitive Potential of Neuroprotective Triazine 5-HT6 Receptor Antagonists Tested on Chronic Activity In Vivo in Rats: Computer-Aided Insight into the Role of Chalcogen-Differences on the Pharmacological Profile” (ACS Chemical Neuroscience, 2025)
Where “and” joins values, the source holds several entries; their conditions need not be identical. Equal values may be shown once. Read-outs that look alike come from different tables or passages of the source.

Columns and labels:
SH-SY5Y cells = assay: ROS assay (2',7'DCFH2-DA), rotenone-induced neurotoxicity; assay type: cell-based, human
Method: The ROS measurement was assayed by 2′,7′-dichlorofluorescin diacetate (2′, 7′DCFH2-DA, Sigma, no. D6883). The protocol was previously described in detail.[10] […] The following day, all treatments were carried out with warmed HBSS containing 25 mM HEPES (hereafter referred to as HBSS), and during the operational steps, the cells were kept at 37 °C to minimize temperature stress.

[1] = tissue distribution pharmacokinetics after single i.p. administration; assay type: in vivo, rat; parameters: Cmax: unit: ng/g
Method: Standard laboratory food (LSM-B) and filtered water as well as environment enrichment were freely available. Animals were randomly divided into treatment groups using a computer-based random order generator. All of the experiments were performed by two observers unaware of the treatment applied between 9:00 and 14:00 on separate groups of animals. Rats were injected with the investigated compounds once (in pharmacokinetic studies) and for 21 days (in behavioral studies), and afterward, behavioral tests were conducted and tissue collection was done, as required. For pharmacokinetic studies, animals were fasted prior to dosing by withholding food but not water overnight. After dosing, the food was withheld for an additional 8 h. All animals were used only once. Animals were handled every day and weighed every other day in the chronic part of the experiment. Procedures involving animals and their care were conducted in accordance with current European Community and Polish legislations on animal experimentation. Additionally, all efforts were made to minimize animals' suffering and to use only the number of animals necessary to produce reliable scientific data. The experimental protocols and procedures described were approved by the I Local Ethics Commission in Cracow (nos 309/2019 and 765/2023) and complied with the European Communities Council Directive of 24 November 24, 1986 (86/609/EEC) and were in accordance with the 1996 NIH Guide for the Care and Use of Laboratory Animals. The research program complies with the commonly accepted '3Rs' (replacement and reduction of animals, refinement of experimental conditions, and procedures to minimize the harm to animals). […] Moreover, five tissues (i.e., brain, heart, lungs, kidneys, and liver) were harvested and rinsed with cold saline. Blood was allowed to clot at room temperature for 15-20 min and then centrifuged (3000 rpm for 10 min). The obtained serum and tissues were stored at -80 °C until analysis. […] HPLC analysis with UV detection at 221 nm was performed at a 1 mL/min flow rate, and the column temperature was 38 °C. Before analysis, tissue samples were thawed, weighed (200-250 mg), and placed in 5 mL plastic tubes with four volumes (w/v) of PBS (pH 7.4) and homogenized individually using a […]-1 homogenizer (ART Prozess & Labortechnik GmbH & Co., Germany). […] The samples were alkalized with 50 μL of 4 M sodium hydroxide solution, vortex-mixed, and extracted with 1 mL of ethyl acetate/hexane (30/70, v/v) mixture on a shaker (VXR Vibrax, IKA, Germany) for 20 min. […] Then, the samples were shaken and centrifuged again. Finally, 60-90 μL of each acidic layer was injected into the HPLC system. […] The interday and intraday precision and accuracy of quality control samples evaluated in the serum and tissue homogenates were within 15%. […] The area under the serum concentration-time curve from time zero to time t (AUC0-t), where t is the time of the last measurable sample, was calculated according to the linear trapezoidal rule. The AUC from time zero to infinity (AUC0-∞) was estimated as AUC0-t + Ct/λz, where Ct was the serum concentration of the last measurable sample. The clearance (CL/F) was calculated as D/AUC0-∞, and the volume of distribution based on the terminal phase (Vz/F) was estimated as D/(λz·AUC0-∞), where F is the bioavailability of intraperitoneal administration. The MRT is calculated to be […], where AMUC0-∞ is the area under the first moment curve from the time of dosing to infinity. The peak serum concentration (Cmax) and the time to reach Cmax (Tmax) were read directly from the observations. […] Data were presented as mean ± SD.

CN1CCN(c2nc(N)nc(C(C)(C)Sc3ccc4ccccc4c3)n2)CC1 [WA-22, 4-(4-methylpiperazin-1-yl)-6-(2-(naphthalen-2-ylthio)propan-2-yl)-1,3,5-triazin-2-amine]
ROS level (Ctr set as 100%) (SH-SY5Y cells; compound 10 μM pretreatment 1 h, then ROT 32.5 μM 3 h): 128%
effect on ROS of compound alone (SH-SY5Y cells; without ROT): did not exert any effect
time after administration at which still detected in all analyzed rat organs ([1]; 1 mg/kg i.p.): 240 min
AUC0–t ([1]; brain, 0.3 mg/kg i.p.): 1575.82 ± 182.54 ng·min/g
t0.5λz ([1]; brain, 0.3 mg/kg i.p.): 48.35 ± 4.46 min
Tmax ([1]; brain, 0.3 mg/kg i.p., 0.3 mg/kg): 11.67 ± 5.77 min
Cmax ([1]; brain, 1.0 mg/kg i.p., 1 mg/kg): 114.79 ± 39.16 ng/g
Tmax ([1]; brain, 1.0 mg/kg i.p., 1 mg/kg): 8.33 ± 5.77 min
t0.5λz ([1]; brain, 1.0 mg/kg i.p., 1 mg/kg): 110.31 min and 110.31 ± 24.35 min
AUC0–t ([1]; heart, 0.3 mg/kg i.p.): 1670.68 ± 385.10 ng·min/g
t0.5λz ([1]; heart, 0.3 mg/kg i.p.): 84.99 ± 19.47 min
AUC0–t ([1]; heart, 1.0 mg/kg i.p.): 6013.14 ± 2336.18 ng·min/g
t0.5λz ([1]; heart, 1.0 mg/kg i.p.): 122.04 ± 18.30 min
fraction cleared in rat tissues and serum at 120 min ([1]; i.p. administration): 80–95%
AUC0–t ([1]; kidneys, 0.3 mg/kg i.p.): 3276.54 ± 1455.54 ng·min/g
t0.5λz ([1]; kidneys, 0.3 mg/kg i.p.): 67.32 ± 12.95 min
AUC0–t ([1]; kidneys, 1.0 mg/kg i.p.): 12540.07 ± 4826.76 ng·min/g
t0.5λz ([1]; kidneys, 1.0 mg/kg i.p., 1 mg/kg): 122 min and 121.93 ± 44.52 min
AUC0–t ([1]; liver, 0.3 mg/kg i.p.): 3993.81 ± 1308.63 ng·min/g
t0.5λz ([1]; liver, 0.3 mg/kg i.p.): 48.07 ± 6.68 min
AUC0–t ([1]; liver, 1.0 mg/kg i.p.): 14056.00 ± 8075.06 ng·min/g
t0.5λz ([1]; liver, 1.0 mg/kg i.p., 1 mg/kg): 109 min and 108.96 ± 17.84 min
AUC0–t ([1]; lungs, 0.3 mg/kg i.p.): 9320.95 ± 1906.43 ng·min/g
t0.5λz ([1]; lungs, 0.3 mg/kg i.p.): 105.43 ± 5.42 min
AUC0–t ([1]; lungs, 1.0 mg/kg i.p.): 33528.62 ± 5691.73 ng·min/g
t0.5λz ([1]; lungs, 1.0 mg/kg i.p.): 96.48 ± 13.43 min
Kp ([1]; male, Wistar, rat, brain (relative to serum), ip, i.p. administration, read-out: brain-to-serum AUC ratio): ~2.17
Cmax ([1]; male, Wistar, rat, brain, ip, 0.3 mg/kg, brain, 0.3 mg/kg i.p., read-out: Cmax): 30.7 ± 3.28 ng/g
Tmax ([1]; male, Wistar, rat, brain, ip, 0.3 mg/kg, brain, 0.3 mg/kg i.p., read-out: Tmax (converted)): 12 min
Cmax ([1]; male, Wistar, rat, brain, ip, 1 mg/kg, brain, 1.0 mg/kg i.p., read-out: Cmax): 115 ± 39.2 ng/g
Tmax ([1]; male, Wistar, rat, brain, ip, 1 mg/kg, brain, 1.0 mg/kg i.p., read-out: Tmax (converted)): 8 min
Kp ([1]; male, Wistar, rat, brain/serum, ip, 0.3 mg/kg, brain, 0.3 mg/kg i.p., read-out: AUC ratio (tissue-to-serum AUC0–t)): 1.89 ± 0.34
Kp ([1]; male, Wistar, rat, brain/serum, ip, 1 mg/kg, brain, 1.0 mg/kg i.p., read-out: AUC ratio (tissue-to-serum AUC0–t)): 2.46 ± 1.32
Kp ([1]; male, Wistar, rat, brain/serum, ip, 1 mg/kg, brain-to-serum, 1 mg/kg i.p., read-out: AUC0–∞ (ng·h/g)/AUC0–∞ (ng·h/mL)): 2.14 ± 1.18
Kp ([1]; male, Wistar, rat, brain/serum, ip, 1 mg/kg, brain-to-serum, 1 mg/kg i.p., read-out: Cmax (ng/g)/Cmax (ng/mL)): 1.99 ± 1.61
Cmax ([1]; male, Wistar, rat, heart, ip, 0.3 mg/kg, heart, 0.3 mg/kg i.p., read-out: Cmax): 37.5 ± 6.65 ng/g
Tmax ([1]; male, Wistar, rat, heart, ip, 0.3 mg/kg, heart, 0.3 mg/kg i.p., read-out: Tmax (converted)): 5 min
Cmax ([1]; male, Wistar, rat, heart, ip, 1 mg/kg, heart, 1.0 mg/kg i.p., read-out: Cmax): 172 ± 74.7 ng/g
Tmax ([1]; male, Wistar, rat, heart, ip, 1 mg/kg, heart, 1.0 mg/kg i.p., read-out: Tmax (converted)): 5 min
Kp ([1]; male, Wistar, rat, heart/serum, ip, 0.3 mg/kg, heart, 0.3 mg/kg i.p., read-out: AUC ratio (tissue-to-serum AUC0–t)): 2 ± 0.52
